Read-outs that look alike come from different tables or passages of the source.
Columns and labels:
Assay type in all cases: in vivo
[1] = tested on: Abutilon theophrasti (ABUTH); experiment: Post-emergence herbicidal action against ABUTH; conditions: 320 g/ha, visual rating about 3 weeks after treatment vs untreated controls (100% = plants have died, 0% = like control plants)
Procedure, shortened: (§1)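 Greenhouse plants sprayed at the one-leaf stage, 2–3 weeks after sowing, with WP or EC formulations plus 0.5% additive at 600 l/ha water. Activity rated visually after about 3 weeks versus untreated controls (100% = dead, 0% = like control), at 320 g/ha or lower.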

[2] = tested on: Abutilon theophrasti (ABUTH); experiment: Pre-emergence herbicidal action against ABUTH; conditions: Dosage column 320 g/ha (title prints 3200 g/ha); scored visually after about 3 weeks; 100% = plants have died
Procedure, shortened: (§2)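 Seeds sown in pots and covered with soil; WP or EC formulations sprayed onto the soil surface at 600 l/ha water with 0.5% additive, at 320 g/ha or lower. Greenhouse growth for about 3 weeks, then visual scoring as % effect against untreated controls (100% = plants dead).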

[3] = tested on: Amaranthus retroflexus (AMARE); experiment: Pre-emergence herbicidal action against AMARE; conditions: 320 g/ha, visual scoring after about 3 weeks vs untreated controls
Procedure, shortened: as §2

[4] = tested on: Polygonum convolvulus (POLCO); experiment: Post-emergence herbicidal action against POLCO
Procedure, shortened: as §1

[5] = tested on: Alopecurus myosuroides (ALOMY); experiment: Post-emergence herbicidal action against ALOMY; conditions: visual rating about 3 weeks after treatment vs untreated controls (100% = plants have died, 0% = like control plants)
Procedure, shortened: as §1

Setaria viridis (SETVI) [6] = experiment: Post-emergence herbicidal action against SETVI; conditions: dosage 320 g/ha
Procedure, shortened: as §1

[7] = tested on: Pharbitis purpurea (PHBPU); experiment: Pre-emergence herbicidal action against PHBPU; conditions: dosage 320 g/ha
Procedure, shortened: as §2

Oryza sativa (ORYSA) [8] = conditions: crop plant compatibility, effect in comparison to untreated controls
Procedure, shortened: (§3)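 Greenhouse crops in sandy loam sprayed post-emergence at the one-leaf stage, 2–3 weeks after sowing, with WP or EC formulations in water plus 0.5% additive at 600 l/ha. Damage rated visually about 3 weeks later versus untreated controls (0% = like control, 100% = dead); suffixes a–c denote different doses.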

Zea mays (ZEAMX) [9] = conditions: crop plant compatibility, effect vs untreated controls
Procedure, shortened: as §3

[10] = tested on: Alopecurus myosuroides (ALOMY); experiment: Pre-emergence herbicidal action against ALOMY; conditions: 320 g/ha; scored visually after about 3 weeks; 100% = plants have died
Procedure, shortened: as §2

[11] = tested on: Verconica persica (VERPE); experiment: Post-emergence herbicidal action against VERPE
Procedure, shortened: as §1

[12] = tested on: Matricaria inodora (MATIN); experiment: Pre-emergence herbicidal action against MATIN; conditions: dosage 320 g/ha
Procedure, shortened: as §2

[13] = tested on: Pharbitis purpurea (PHBPU); experiment: Post-emergence herbicidal action against PHBPU
Procedure, shortened: as §1

Avena fatua (AVEFA) [14] = experiment: Post-emergence herbicidal action against AVEFA; conditions: visual rating about 3 weeks after treatment
Procedure, shortened: as §1

[15] = tested on: Echinochloa crus-galli (ECHCG); experiment: Post-emergence herbicidal action against ECHCG
Procedure, shortened: as §1

Viola tricolor (VIOTR) [16] = experiment: Post-emergence herbicidal action against VIOTR
Procedure, shortened: as §1

[17] = tested on: Polygonum convolvulus (POLCO); experiment: Pre-emergence herbicidal action against POLCO; conditions: dosage 320 g/ha
Procedure, shortened: as §2

Lolium rigidum (LOLRI) [18] = experiment: Post-emergence herbicidal action against LOLRI
Procedure, shortened: as §1

Setaria viridis (SETVI) [19] = experiment: Pre-emergence herbicidal action against SETVI; conditions: dosage 320 g/ha
Procedure, shortened: as §2

Avena fatua (AVEFA) [20] = experiment: Pre-emergence herbicidal action against AVEFA; conditions: 320 g/ha, visual scoring after about 3 weeks vs untreated controls
Procedure, shortened: as §2

Viola tricolor (VIOTR) [21] = experiment: Pre-emergence herbicidal action against VIOTR
Procedure, shortened: as §2

[22] = tested on: Verconica persica (VERPE); experiment: Pre-emergence herbicidal action against VERPE
Procedure, shortened: as §2

Lolium rigidum (LOLRI) [23] = experiment: Pre-emergence herbicidal action against LOLRI
Procedure, shortened: as §2

[24] = tested on: Amaranthus retroflexus (AMARE); experiment: Post-emergence herbicidal action against AMARE
Procedure, shortened: as §1

[25] = tested on: Echinochloa crus-galli (ECHCG); experiment: Pre-emergence herbicidal action against ECHCG; conditions: dosage 320 g/ha
Procedure, shortened: as §2

Brassica napus (BRSNW) = conditions: crop plant compatibility, in comparison to untreated controls
Procedure, shortened: (§4)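 Crop injury rated visually in percent against untreated plants roughly 3 weeks after treatment (0% no effect, 100% plants dead). Compounds, as WP or EC with 0.5% additive in 600 l/ha water, were applied to the covering soil right after sowing; greenhouse growth. Suffixes a, b, c denote different dosages.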

Oryza sativa (ORYSA) [26] = conditions: pre-emergence, crop plant compatibility, in comparison to untreated controls
Procedure, shortened: as §4

Zea mays (ZEAMX) [27] = conditions: pre-emergence, crop plant compatibility, in comparison to untreated controls
Procedure, shortened: as §4

[28] = tested on: Triticum aestivum (TRZAS); conditions: crop plant compatibility, effect vs untreated controls
Procedure, shortened: as §3

[29] = tested on: Triticum aestivum (TRZAS); conditions: pre-emergence, crop plant compatibility, in comparison to untreated controls
Procedure, shortened: as §4

[30] = 320 g/ha, visual rating about 3 weeks after treatment

Row | Post-emergence action against ORYSA in % (Oryza sativa (ORYSA) [8]; 80 g/ha) | Post-emergence action against ZEAMX in % (Zea mays (ZEAMX) [9]; 80 g/ha) | Pre-emergence action against BRSNW in % (Brassica napus (BRSNW); 80 g/ha) | Post-emergence action against ZEAMX in % (Zea mays (ZEAMX) [9]; 320 g/ha) | Pre-emergence action against ORYSA in % (Oryza sativa (ORYSA) [26]; 80 g/ha) | Pre-emergence action against ZEAMX in % (Zea mays (ZEAMX) [27]; 80 g/ha) | Compound | Pre-emergence action against AMARE in % [3] | Post-emergence action against POLCO in % ([4]; dosage 320 g/ha) | Post-emergence action against ALOMY in % ([5]; 320 g/ha) | Post-emergence action against SETVI in % (Setaria viridis (SETVI) [6]) | Pre-emergence action against PHBPU in % [7] | Pre-emergence action against ALOMY [10] | Post-emergence action against VERPE in % ([11]; 320 g/ha, VERPE) | Post-emergence action against AVEFA in % (Avena fatua (AVEFA) [14]; 320 g/ha) | Post-emergence action against ECHCG in % ([15]; dosage 80 g/ha) | Post-emergence action against ECHCG in % ([15]; dosage 320 g/ha) | Post-emergence action against VIOTR in % (Viola tricolor (VIOTR) [16]; 80 g/ha) | Post-emergence action against VIOTR in % (Viola tricolor (VIOTR) [16]; 320 g/ha) | Pre-emergence action against POLCO in % [17] | Post-emergence action against AMARE in % [24, 30] | other results
1 | 0% | 10% | 20% |  |  |  | COC(=O)[C@@H](C)Oc1nn(-c2nc(F)ccc2F)c(-c2ccc(F)nc2)c1Br [Example I-319] | 100% | 80% | 90% | 80% | 90% | 100% | 80% | 80% | 80% | 90% | 80% | 90% | 90% | 80% | Post-emergence action against ABUTH in % [1]: 80%; Pre-emergence action against ABUTH [2]: 80%; Post-emergence action against ALOMY in % ([5]; 80 g/ha): 90%; Pre-emergence action against MATIN in % [12]: 90%; Post-emergence action against PHBPU in % ([13]; dosage 80 g/ha): 80%; Post-emergence action against PHBPU in % ([13]; dosage 320 g/ha): 90%; Post-emergence action against AVEFA in % (Avena fatua (AVEFA) [14]; 80 g/ha): 80%; Post-emergence action against LOLRI in % (Lolium rigidum (LOLRI) [18]; dosage 80 g/ha): 80%; Post-emergence action against LOLRI in % (Lolium rigidum (LOLRI) [18]; dosage 320 g/ha): 80%; Pre-emergence action against SETVI in % (Setaria viridis (SETVI) [19]): 100%; Pre-emergence action against AVEFA in % (Avena fatua (AVEFA) [20]): 100%; Pre-emergence action against VIOTR in % (Viola tricolor (VIOTR) [21]; 320 g/ha, Viola tricolor): 100%; Pre-emergence action against VIOTR in % (Viola tricolor (VIOTR) [21]; dosage 80 g/ha): 100%; Pre-emergence action against VERPE in % ([22]; dosage 80 g/ha): 80%; Pre-emergence action against VERPE in % ([22]; dosage 320 g/ha): 90%; Pre-emergence action against LOLRI in % (Lolium rigidum (LOLRI) [23]; dosage 80 g/ha): 90%; Pre-emergence action against LOLRI in % (Lolium rigidum (LOLRI) [23]; dosage 320 g/ha): 100%; Pre-emergence action against ECHCG in % [25]: 100%
2 | 0% | 0% | 0% | 20% | 0% | 20% | CCOC(=O)COc1nn(-c2ncccc2C(F)(F)F)c(-c2ccc(F)nc2)c1Br [Example I-335] | 90% | 80% | 100% | 90% | 80% | 80% | 90% | 90% | 80% | 90% | 80% | 90% | 90% | 80% | Post-emergence action against POLCO in % ([4]; dosage 80 g/ha): 80%; Post-emergence action against VERPE in % ([11]; dosage 80 g/ha): 90%; Post-emergence action against LOLRI in % (Lolium rigidum (LOLRI) [18]; dosage 320 g/ha): 90%; Pre-emergence action against AVEFA in % (Avena fatua (AVEFA) [20]): 80%; Pre-emergence action against VIOTR in % (Viola tricolor (VIOTR) [21]; 320 g/ha, Viola tricolor): 100%; Pre-emergence action against VERPE in % ([22]; dosage 320 g/ha): 80%; Pre-emergence action against LOLRI in % (Lolium rigidum (LOLRI) [23]; dosage 320 g/ha): 90%; Post-emergence action against AMARE in % ([24]; 80 g/ha, visual rating about 3 weeks after treatment vs untreated controls (100% = plants have died, 0% = like control plants)): 80%; Pre-emergence action against BRSNW in % (Brassica napus (BRSNW); 320 g/ha): 0%
3 | 0% | 0% | 0% | 10% | 0% | 10% | O=C(O)C1CCN(C(=O)COc2nn(-c3ccccn3)c(-c3cncc(F)c3)c2Br)C1 (racemic) [Example I-63] |  |  |  |  |  |  |  |  |  |  |  |  |  |  | Post-emergence action against ORYSA in % (Oryza sativa (ORYSA) [8]; 320 g/ha): 10%; Post-emergence action against TRZAS in % ([28]; 80 g/ha): 0%; Post-emergence action against TRZAS in % ([28]; 320 g/ha): 0%; Pre-emergence action against BRSNW in % (Brassica napus (BRSNW); 320 g/ha): 20%; Pre-emergence action against ORYSA in % (Oryza sativa (ORYSA) [26]; 320 g/ha): 0%; Pre-emergence action against TRZAS in % ([29]; 80 g/ha): 0%; Pre-emergence action against TRZAS in % ([29]; 320 g/ha): 0%; Pre-emergence action against ZEAMX in % (Zea mays (ZEAMX) [27]; 320 g/ha): 10%
4 | 0% | 0% | 0% | 0% | 0% | 10% | CCOC(=O)COc1nn(-c2ccnc(F)c2)c(-c2ccc(F)nc2)c1Br [III-01] |  |  |  |  |  |  | 80% | 80% |  | 80% |  | 80% |  | 80% | Post-emergence action against ORYSA in % (Oryza sativa (ORYSA) [8]; 320 g/ha): 0%; Post-emergence action against TRZAS in % ([28]; 80 g/ha): 0%; Pre-emergence action against ORYSA in % (Oryza sativa (ORYSA) [26]; 320 g/ha): 0%; Pre-emergence action against TRZAS in % ([29]; 80 g/ha): 0%; Pre-emergence action against ZEAMX in % (Zea mays (ZEAMX) [27]; 320 g/ha): 20%
